{"source": "paper PMC11770318", "about": "“Isolation and characterization of a β-galactosidase from Lactobacillus helveticus for industrial processing” (JDS Communications, 2024)", "key": {"[1]": {"biological_target": "T1, β-galactosidase (LacLM) from Lactobacillus helveticus OSU-PECh-4A (Lactobacillus helveticus, UniProt Q7WTB3+Q7WTB4)", "T1 construct": "gene lacL; native, purified from Lb. helveticus OSU-PECh-4A by diafiltration and size-exclusion chromatography; GH2 heterodimer, 110 kDa (74 + 36 kDa subunits); 13 peptides identified by LC-MS; no tag", "T1 sequence (Q7WTB4 whole entry)": "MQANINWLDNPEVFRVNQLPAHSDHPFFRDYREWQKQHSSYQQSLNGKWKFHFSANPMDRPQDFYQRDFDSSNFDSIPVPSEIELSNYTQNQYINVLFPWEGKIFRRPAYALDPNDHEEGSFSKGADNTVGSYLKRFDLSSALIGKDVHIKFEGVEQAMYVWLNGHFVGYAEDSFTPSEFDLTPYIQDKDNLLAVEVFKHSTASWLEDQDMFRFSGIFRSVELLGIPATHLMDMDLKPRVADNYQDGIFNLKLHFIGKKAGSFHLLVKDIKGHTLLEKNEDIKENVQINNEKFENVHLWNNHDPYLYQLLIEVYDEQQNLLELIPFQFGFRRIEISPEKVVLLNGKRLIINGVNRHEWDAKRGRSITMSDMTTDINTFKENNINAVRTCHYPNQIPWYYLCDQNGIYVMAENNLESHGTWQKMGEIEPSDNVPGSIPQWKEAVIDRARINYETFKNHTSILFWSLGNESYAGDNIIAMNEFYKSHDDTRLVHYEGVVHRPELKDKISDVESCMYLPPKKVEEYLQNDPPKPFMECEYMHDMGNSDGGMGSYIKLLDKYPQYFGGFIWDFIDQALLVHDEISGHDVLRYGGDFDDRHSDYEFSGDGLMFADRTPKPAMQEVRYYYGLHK", "T1 sequence (Q7WTB3 whole entry)": "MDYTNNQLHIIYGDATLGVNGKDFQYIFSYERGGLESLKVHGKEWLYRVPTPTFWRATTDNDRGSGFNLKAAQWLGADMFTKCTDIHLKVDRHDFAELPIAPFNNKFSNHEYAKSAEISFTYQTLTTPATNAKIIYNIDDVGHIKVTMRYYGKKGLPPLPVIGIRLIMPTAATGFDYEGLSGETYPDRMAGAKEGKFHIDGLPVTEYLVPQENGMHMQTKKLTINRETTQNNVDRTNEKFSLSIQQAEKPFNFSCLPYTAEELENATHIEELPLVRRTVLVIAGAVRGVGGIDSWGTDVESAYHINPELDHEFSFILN", "assay": "inhibition of lactose hydrolysis", "assay_type": "biochemical", "conditions": "end product; substrate lactose; 50 mM sodium phosphate pH 7.0, 37°C"}, "[2]": {"biological_target": "T1, β-galactosidase (LacLM) from Lactobacillus helveticus OSU-PECh-4A", "assay": "inhibition of oNPG hydrolysis", "assay_type": "biochemical", "conditions": "end product; substrate oNPG; 50 mM sodium phosphate pH 7.0, 37°C; allosteric (authors' interpretation)"}}}
{"compound": "OC[C@H]1OC(O)[C@H](O)[C@@H](O)[C@H]1O", "note": "(stereo partly drawn) [D-galactose]", "values": [{"measurement": "% loss of initial activity at 1 mM", "setting": "[1]", "value": 30, "unit": "%"}]}
{"compound": "OC[C@H]1OC(O)[C@H](O)[C@@H](O)[C@@H]1O", "note": "(stereo partly drawn) [D-glucose]", "values": [{"measurement": "% decrease of activity below 50 mM", "setting": "[2]", "value": 30, "unit": "%"}]}
